Laboratory results published in patent US5272151A, “Aminoacyl and oligopeptidyl derivatives of allopurinol exhibiting immunostimulatory activity, and pharmaceutical formulations containing these substances” (Sigma-Tau Industrie Farmaceutiche Riunite S.p.A., priority 1991, dated 1993).
Like-named read-outs stand apart in the source and are kept apart here.

How the values were obtained:
[1] = system: plaque-forming cells (PFC) in the spleen of mice immunised with sheep red blood cells (SRBC); test: Production of primary antibodies (Jerne test) in the spleen of mice immunised with SRBC; format: in vivo; conditions: for PFC/10^6 cells (x ± S.E.) / PFC/spleen (x ± S.E.): 25 mg/kg/d i.p. from day -3 through day 3, SRBC immunisation day 0, B6D2F1 mice
Description: The effects of ST 689 and ST 789 on the production of primary antibodies (Jerne test) in the spleen of mice immunised with sheep red blood cells (SRBC).
Male hybrid B6 D2 F1 mice (Charles River, Italy), 7-8 weeks old, were used in experimental groups of 6 animals each. In this test, each animal was examined individually.
The compounds were administered intraperitoneally at a daily dose of 25 mg/kg from day -3 to day +3, where day 0 was the day of immunisation. The experimental procedure employed is described in Jerne, N. K. et al., Transpl. Rev., 18:30 (1974). Animals were immunised by i.p. administration of a suspension of SRBC (1×10^8 cells/mouse in 0.2 mL of PBS buffer). Five days following this treatment, the animals were killed and their spleens sterilely removed. The splenocytes were suspended at a concentration of 1×10^7 cells/ml, and 0.1 mL of this splenocyte suspension was mixed with 2 mL of warm Hank's agar medium +0.2 mL of 10% SRBC in PBS buffer and incubated in a Petri dish for 60 min at 37° C. (the samples were tested in triplicate). Complement (2 mL of guinea pig serum diluted 1:10 with Tris buffer) was added, and the Petri dishes incubated for 30 min at 37° C. In the presence of complement the cells secreted anti-SRBC antibodies, which evoked a haemolytic reaction. Such a reaction is indicative of lytic plaques in the samples contained in the Petri dishes.
The results are expressed as: […]
a) number of plaque-forming cells (PFC) in a population of 1×10^6cells;
b) number of PFC in intact spleens.
The values obtained were analysed using Dunnett's test (Biostatistics in Pharmacology, vol. 2, Pergamon Press) to ascertain the statistical significance of differences between the treated and control animal groups.

IL-2 = test: In vitro-ex vivo production of IL-2 by rat splenocytes (CTLL-2 bioassay); conditions: for IL-2 in supernates from rat splenocytes: ConA-stimulated splenocytes, 48 h, 25 mg/kg daily i.p. day -5 through day -1
Description: In vitro-ex vivo effect of ST 689 and ST 789 on the production of IL-2 by rat splenocytes.
Male Fisher rats (Charles River, Italy), 3 months old, in experimental groups of 5 animals, were treated with the substances at daily dosages of 25 mg/kg from day -5 through day -1 relative to the day the spleens were sampled (day 0). The experimental procedure employed was that reported in [1]. To suspensions of splenocytes, prepared in RPMI 1640 with 10% FCS+1×10^-5 M β-mercaptoethanol and standardised to a concentration of 1×10^7 cells/mL, were added equal volumes of ConA at a concentration of 18 μg/mL/well. After incubating for 48 h at 37° C. in the presence of 5% CO2 the samples were centrifuged and the supernates collected. Serial dilutions of the supernates were added to CTLL-2 cells (a line of T-cells requiring IL-2 for growth) standardised at 5×10^4 cells/mL. Following an overnight incubation, the samples were labelled with ^3 H--TdR (0.5 μCi/well)for 6 h, then the cells were collected on filters using a cell harvester, and counted (cpm) using a β-counter. The results are expressed in units of IL-2, comparing the counts in the samples to a standard curve prepared with purified IL-2 . . . ls1.

[2] = system: CEM-CM3 human leukaemic lymphoblasts; test: In vitro-ex vivo cytostatic activity of mouse peritoneal macrophages towards tumour targets; conditions: for inhibition at 25 mg/kg: Mus musculus, Peritoneal macrophage
Description: In vitro-ex vivo effects of substances ST 689 and ST 789 on the cytostatic activity of mouse peritoneal macrophages (MO) towards tumour targets.
Male B6 D2 F1 mice (Charles River, Italy), 7 weeks old, 5 animals per experimental group, were treated with the above substances i.p. at daily dosages of 25 mg/kg from day -5 through day -1 relative to the day of macrophage sampling (day 0). The tumour target, CEM--CM3 human leukaemic lymphoblasts, was admixed with adherent Mo so as to have two different precisely-measured effector:target ratios, viz. 10:1 and 20:1. Each sample, prepared in triplicate in flat-bottom microliter wells, was labelled with ^3 H--TdR (0.05 μCi) by incubation for 18 h at 37° C. The tumour cells from each well were collected on filters, counted in a β-counter, and the % inhibition of tumour target growth determined using the formula. [formula]

S. marcescens = test: Protective effect in experimentally-infected immunosuppressed mice (S. marcescens); format: in vivo; conditions: for % Mortality, S. marcescens: cyclophosphamide-immunodepressed CD1 mice, 25 mg/kg/d i.p. day -5 through day -1, challenge day 0
Excerpt: Evaluation of the protective effects of ST 689 and ST 789 in experimentally-infected immunosuppressed mice.
Male CDl mice (Charles River, Italy), 6-10 weeks old, were used in experimental groups of 9-20 animals. Systemic infection in the mice was achieved by intrapcritoncal inoculation of a pathogenic species of Klebsiclla (K. oxytoca), Proteus (P. mirabilis), Serratia (S. marcescens),and Hscherichia (E. coli). Eighteen-hour broth cultures were used to prepare infectious inocula that were either sublethal (Proteus) or which corresponded to an LD30 (Serratia) and an LD10 (Escherichia, Klebsiella). The bacterial challenge, inoculated i.p. in 0.5 mL of 5% gastric mucin, was designed to cause the death of animals immunodepressed with cyclophosphamide (administered i.p. in 0.2 mL of sterile physiological solution at a dosage of 100 mg/kg) 5 days prior to infection. The compounds were administered i.p. at daily doses of 25 mg/kg from day -5 to day -1 with respect to the day of bacterial inoculation (day 0). The results are expressed as % mortality and were statistically analysed using Fisher's test (Biostatistics in Pharmacology, vol. 2, Pergamon Press).

Structure (SMILES)	PFC/10^6 cells (x ± S.E.) [1]	PFC/spleen (x ± S.E.) [1]	Activity in terms of the number of PFC per spleen, in words ([1]; 25 mg/kg/d i.p., increase not statistically significant with respect to the control)	IL-2 in supernates from rat splenocytes (IL-2)	Production of IL-2 by splenocytes, in words (IL-2; compared to the same dosage of ST 789)	inhibition at 25 mg/kg ([2]; effector:target ratio 10:1, 25 mg/kg daily day -5 through day -1, read-out: % Growth Inhibition 10:1)	inhibition at 25 mg/kg ([2]; effector:target ratio 20:1, 25 mg/kg daily day -5 through day -1, read-out: % Growth Inhibition 20:1)	% Mortality, S. marcescens (S. marcescens)	Protective activity in Serratia infection, in words (S. marcescens; immunodepressed mice, 25 mg/kg/d i.p.)	Growth inhibition of the CEM-CM3 cell line, in words ([2]; 25 mg/kg daily i.p.)	% Growth Inhibition 10:1 ([2]; effector:target ratio 10:1, 25 mg/kg daily day -5 through day -1)	% Growth Inhibition 20:1 ([2]; effector:target ratio 20:1, 25 mg/kg daily day -5 through day -1)
O=c1[nH]cnc2c1cnn2CCCCCO [ST 689, 1,5-dihydro-1-(5-hydroxypentyl)-4H-pyrazolo-[3,4-d]-pyrimidin-4-one]	303 ± 47 PFC/10^6 cells	64839 ± 15985 PFC/spleen	more active than ST 789	183.25 ± 22.55 U/mL	increase in the production of IL-2	32.8 ± 1.84%	48 ± 5.46%	20%	better than ST 789	–	–	–
N=C(N)NCCC[C@H](NC(=O)OCCCCCn1cnc2c(=O)[nH]cnc21)C(=O)O [ST 789, N-alfa-5-(hypoxanthin-9-yl)-pentyloxycarbonylarginine, reference compound]	220 ± 30 PFC/10^6 cells	35011 ± 4761 PFC/spleen	–	98.43 ± 4.47 U/mL	–	–	–	50%	–	definite increase in growth inhibition	15.85 ± 3.33%	30.31 ± 5.19%
